Laboratory results as given in patent US8791163B2 (McGill University, priority 2006, dated 2014).

Experiments:
[1] = target: T1, cloned human MT1 receptors (Homo sapiens, UniProt P48039); test: 2-[125I]iodomelatonin competition binding, human MT1 in NIH3T3 cells; conditions: calculated from IC50 by Cheng-Prusoff, mean of at least three determinations
T1 construct: expressed in transfected cells
Experimental: (§1) Membranes were incubated for 90 min at 37° C. in binding buffer (Tris/HCl 50 mM, pH 7.4). The final membrane concentration was 5-10 μg of protein per tube. […] The pKi values are the mean of at least three independent determinations performed in duplicate. To define the functional activity of the compounds of Formula (I) at the MT1 and MT2 receptor subtypes, [^35S]GTPγS binding assays in NIH3T3 cells expressing human-cloned MT1 or MT2 receptors were performed. The amount of bound [^35S]GTPγS is proportional to the level of analogue-induced G-protein activation and is related to the intrinsic activity of the compound (i.e. a compound of Formula (I)) under study. […] Nonspecific binding was assessed using non-radiolabeled GTPγS (10 μM). […] Basal stimulation is the amount of [^35S]GTPγS specifically bound in the absence of the compounds of Formula (I) and was taken as 100%. […] All of the measurements were performed in triplicate.

[2] = target: T2, cloned human MT2 receptors (Homo sapiens, UniProt P49286); test: 2-[125I]iodomelatonin competition binding, human MT2 in NIH3T3 cells; conditions: human MT2 in NIH3T3 cells; calculated from IC50 by Cheng-Prusoff; mean of at least three determinations
T2 construct: expressed in transfected cells
T2 sequence (P49286 1-362): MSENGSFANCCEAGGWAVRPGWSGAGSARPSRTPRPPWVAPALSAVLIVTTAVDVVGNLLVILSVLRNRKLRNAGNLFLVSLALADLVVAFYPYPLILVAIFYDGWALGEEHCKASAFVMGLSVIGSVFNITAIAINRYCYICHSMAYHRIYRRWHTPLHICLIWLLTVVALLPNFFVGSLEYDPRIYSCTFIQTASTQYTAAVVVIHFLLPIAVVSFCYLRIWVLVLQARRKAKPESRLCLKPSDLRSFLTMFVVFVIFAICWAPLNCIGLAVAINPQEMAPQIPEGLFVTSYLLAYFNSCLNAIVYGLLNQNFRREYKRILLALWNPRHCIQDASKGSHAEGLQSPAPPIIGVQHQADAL
Experimental: as §1

[3] = target: T1, cloned human MT1 receptors; test: [35S]GTPγS binding assay, NIH3T3 cells expressing human MT1; assay type: biochemical; for MT1 Activity: key: A = agonist; PA = partial agonist; ANT = antagonist; IA = Inverse agonist
Experimental: as §1

[4] = target: T2, cloned human MT2 receptors; test: [35S]GTPγS binding assay, NIH3T3 cells expressing human MT2; assay type: biochemical; conditions: maximal net effect relative to MLT
Experimental: as §1

[5] = test system: Adult Sprague Dawley rats; test: Elevated plus maze (EPM); assay type: in vivo, rat; conditions: melatonin 50 mg/kg
Experimental: The maze is comprised of two open arms (50×10 cm) and two closed arms (50×10×40 cm) that extend from a common central platform (10×10 cm). The apparatus, made of wood (painted black) was elevated to a height of 80 cm above floor level. The closed arms are located opposite one another. Behavior is recorded over a period of 5 min using a video camera positioned directly above the maze and rated by an observer blind to drug conditions. The major measure of interest is the amount of time spent in the open arms. As an index of general activity and distribution, the total number of entries into both open and closed arms was also recorded. […] In order to increase the sensitivity of this test to anxiolytic activity, tests are carried out under normal room illumination (25 W bulb).

[6] = target: high-affinity MLT receptors; conditions: read-out: Ki, high-affinity MLT receptors; cited from earlier work

T1 sequence (P48039 whole entry): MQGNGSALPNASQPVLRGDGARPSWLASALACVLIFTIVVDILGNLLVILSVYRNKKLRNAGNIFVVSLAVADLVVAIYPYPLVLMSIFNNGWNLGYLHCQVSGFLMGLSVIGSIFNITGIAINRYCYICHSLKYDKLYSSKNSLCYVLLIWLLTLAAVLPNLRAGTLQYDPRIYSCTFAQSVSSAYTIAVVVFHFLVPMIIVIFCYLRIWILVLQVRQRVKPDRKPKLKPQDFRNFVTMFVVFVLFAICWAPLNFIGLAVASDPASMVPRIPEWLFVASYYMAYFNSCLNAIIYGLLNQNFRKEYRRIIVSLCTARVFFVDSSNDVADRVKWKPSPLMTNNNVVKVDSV

MT1 pKi [1]	MT2 pKi [2]	MT1 Activity [3]	MT1 IAr ± SEM (relative intrinsic activity) ([3]; maximal net effect relative to MLT)	MT2 IAr ± SEM (relative intrinsic activity) [4]	melting point	Structure (SMILES)	Head Dips [5]	Percentage of time in Closed Arms [5]	Percentage of time in Open Arms [5]	Ki [6]
6.90 ± 0.04	8.41 ± 0.13	ANT	0.10 ± 0.03	0.57 ± 0.04	44 to 45 °C	CC(=O)NCCN(c1ccccc1)c1ccccc1 [5a, N-[2-(diphenylamino)ethyl]acetamide]				
						COc1ccc2[nH]cc(CCNC(C)=O)c2c1 [MLT, N-acetyl-5-methoxytryptamine, reference compound]	7.17 ± 0.89	73.33 ± 3.02 (P = 0.001) %	26.67 ± 3.0 (P = 0.001) %	~0.1 nM
